Data: patent publication US20120238623A1, “Inflammation and Autoimmune Disorder Treatment using RARa Selective Agonists” (priority 2011, published 2012)

Tests used:
[1] = molecular target: T1, RARα (Homo sapiens, UniProt P10276); assay: displacement assay to measure agonist binding affinity; conditions: read-out: Binding Affinities for RARα
T1 sequence (P10276 1-462): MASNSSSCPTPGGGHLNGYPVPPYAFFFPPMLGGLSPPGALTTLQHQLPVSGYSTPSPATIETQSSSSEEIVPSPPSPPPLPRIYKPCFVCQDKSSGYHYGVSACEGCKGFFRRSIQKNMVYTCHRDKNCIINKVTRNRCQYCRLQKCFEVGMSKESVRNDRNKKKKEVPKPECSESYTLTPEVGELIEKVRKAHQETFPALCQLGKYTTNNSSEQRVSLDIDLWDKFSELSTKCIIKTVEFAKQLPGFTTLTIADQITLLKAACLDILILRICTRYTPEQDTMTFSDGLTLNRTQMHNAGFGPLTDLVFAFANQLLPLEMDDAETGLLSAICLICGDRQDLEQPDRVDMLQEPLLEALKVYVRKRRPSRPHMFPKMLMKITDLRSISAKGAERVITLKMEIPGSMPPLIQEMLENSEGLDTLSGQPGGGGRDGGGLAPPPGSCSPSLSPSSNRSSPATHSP

[2] = molecular target: T2, RARβ (Homo sapiens, UniProt P10826); assay: as above; conditions: read-out: Binding Affinities for RARβ
T2 sequence (P10826 1-455): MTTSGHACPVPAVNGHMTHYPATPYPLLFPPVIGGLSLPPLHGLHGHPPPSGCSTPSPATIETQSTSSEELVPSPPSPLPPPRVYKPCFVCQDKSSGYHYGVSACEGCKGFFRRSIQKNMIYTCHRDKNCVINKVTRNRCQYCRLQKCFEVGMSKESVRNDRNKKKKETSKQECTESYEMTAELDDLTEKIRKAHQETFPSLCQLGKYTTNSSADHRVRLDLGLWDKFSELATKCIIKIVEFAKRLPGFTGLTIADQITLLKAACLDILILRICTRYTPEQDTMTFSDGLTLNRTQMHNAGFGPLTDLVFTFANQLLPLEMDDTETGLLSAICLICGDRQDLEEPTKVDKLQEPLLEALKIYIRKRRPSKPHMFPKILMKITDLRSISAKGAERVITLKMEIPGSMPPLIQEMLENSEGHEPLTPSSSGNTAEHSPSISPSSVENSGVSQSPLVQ

[3] = molecular target: T3, RARγ (Homo sapiens, UniProt P13631); assay: as above; conditions: read-out: Binding Affinities for RARγ
T3 sequence (P13631 1-454): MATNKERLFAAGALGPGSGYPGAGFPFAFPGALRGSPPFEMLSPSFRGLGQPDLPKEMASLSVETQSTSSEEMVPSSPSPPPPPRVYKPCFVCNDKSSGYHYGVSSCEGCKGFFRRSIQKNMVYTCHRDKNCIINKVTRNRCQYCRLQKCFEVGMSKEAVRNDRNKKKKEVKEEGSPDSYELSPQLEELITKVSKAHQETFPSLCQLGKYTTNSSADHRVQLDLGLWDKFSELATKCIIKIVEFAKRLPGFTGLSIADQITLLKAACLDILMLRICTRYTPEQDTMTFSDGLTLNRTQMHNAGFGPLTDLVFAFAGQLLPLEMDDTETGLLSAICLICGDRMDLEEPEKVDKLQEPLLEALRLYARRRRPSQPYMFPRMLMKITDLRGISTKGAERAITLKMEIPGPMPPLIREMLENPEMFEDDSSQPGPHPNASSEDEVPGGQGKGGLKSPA

[4] = tested on: RARα, RARβ, and RARγ; assay: transactivation assay to measure agonist activity; type: cell-based; conditions: FIG. 2
Source text: Other RARα selective agonists useful as a compound disclosed herein are described in, e.g., Teng, et al., Aryl or Heteroaryl Amides of Tetrahydronaphthalene, Chroman, Thiochroman and 1,2,3,4-Tetrahydroquinoline Carboxylic Acids, Having an Electron Withdrawing Substituent in the Aromatic Or Heteroaromatic Moiety, Having Retinoid-Like Biological Activity, U.S. Pat. No. 5,856,490; Teng, et al., Methods of Treatment with Compounds Having RARα Receptor Specific or Selective Activity, U.S. Pat. No. 5,965,606; and Nehma, et al., Treatment of Tumors with RARα Selective Retinoid Compounds in Combination with Other Anti-Tumor Agents, U.S. Pat. No. 6,387,950; each of which is incorporated by reference in its entirety. […] Assays by which a compound can be tested and established whether or not it is an RARα selective agonist, are known in the art and are described in numerous prior art publications and patents.

[5] = tested on: Naive CD4+ CD25− FoxP3− cells; assay: Treg cell differentiation (FoxP3-GFP expression by flow cytometry) in vitro; type: cell-based, mouse; conditions: αCD3, IL-2 and TGF-β
Procedure: Purified CD4+ CD25^− FoxP3^− cells were cultured in media with the specified concentration of each RAR agonist and analyzed by flow cytometry for FoxP3 (A), α4β7 (B), and CCR9 (C) expression in total CD4 T cells. FoxP3 results are representative of 3 independent experiments. CCR9 and α4β7 results are representative of multiple experiments.
It is important to determine which of the RAR (RARα, RARβ, RARγ) signaling pathways is important in the induction of Foxp3 expression. To determine this, naive CD4^+ CD25^− FoxP3^− cells were purified from a Foxp3-GFP mouse using flow cytometry by sorting and isolating based upon a GFP^− phenotype. These cells were activated polyclonally with αCD3 in vitro in the presence of IL-2 and TGF-β. To identify the RAR involved in RA-induced, the cultured cells were incubated with RAR selective agonists. The cultured cells were then score for the frequency of GFP+ (Foxp3+). With respect to the use of selective agonists, only the RARα agonist exerted significant impact on the expression of Foxp3 inducing nearly 100% Foxp3+ T cells, with enhancement on the expression of α4β7 and CCR9 (gut homing receptors) (FIG. 1). The RARγ and RARβ agonists were without effect.
(§1) To determine whether a RARα selective agonist could affect T cell differentiation, T cells were incubated with a RARα selective agonist to determine its effect on Foxp3 expression evaluated. Naive CD4^+ CD25^− FoxP3^− cells were purified from a Foxp3-GFP mouse using flow cytometry by sorting and isolating based upon a GFP^− phenotype. These cells were activated polyclonally with αCD3 in vitro in the presence of IL-2 and TGF-β. These cells were then cultured in media with various concentrations of compound 5183 (a RARα selective agonist) and the expression of FoxP3-GFP was analyzed by flow cytometry. The RARα selective agonist compound 5183 enhanced differentiation of immunosuppressive Treg cells and inhibited differentiation of inflammatory TH17 cells from Naïve T cells in vitro (Table 2).

[6] = tested on: Naïve T cells; assay: Th17 cell differentiation from Naïve T cells in vitro; type: cell-based, mouse
Procedure: as §1

[7] = tested on: CD4+ T cells; assay: in vivo FoxP3 expression in CD4+ T cells of blood and spleen; set-up: species or system mouse; conditions: mice, 100 μg every other day for 10 days
Procedure: To expand on the finding above, the in vivo effects of a RARα selective agonist on T cell differentiation was evaluated in a mouse model. Mice were treated 100 μg of compound 5183 (a RARα agonist) or an equivalent volume of DMSO (vehicle control) every other day for 10 days. Lymphocytes from the blood and spleen were then isolated and FoxP3 expression in CD4^+ T cells was assessed.

[8] = tested on: experimental autoimmune encephalomyelitis (EAE); assay: experimental autoimmune encephalomyelitis (EAE) mouse model; type: in vivo, SJL mice
Procedure: To determine if RARα selective agonists reduce symptoms associated with an autoimmune disorder, the effects of a RARα selective agonist was evaluated in an experimental autoimmune encephalomyelitis (EAE) mouse model. EAE is an inflammatory disease of the central nervous system widely used as a model of multiple sclerosis in which Th17 cells are the principle mediators of the symptoms observed. […] In one set of experiments, the effects of prophylactic dosing were assessed. Mice were administered 1 mg/kg of compound 5183 intraperitoneally every other day starting day 1 after EAE induction. In a second set of experiments, the effects of therapeutic dosing were assessed. Mice were administered 2 mg/kg of compound 5183 intraperitoneally every other day starting day 7 after EAE induction. Clinical parameters of disease (loss of bodyweight and paralysis/paresis) were monitored on a daily basis.

CC1(C)CCC(C)(C)c2c1cc(C(=O)Nc1cc(F)c(C(=O)O)c(F)c1)c(O)c2Cl [Compound 5183]
Kd [1]: 0.0047 µM
Kd [2]: > 10 µM
Kd [3]: > 10 µM
activation of transcription from RARα, RARβ, and RARγ [4]: specifically activates RARα
Treg cell Percent Differentiation (%) ([5]; 0.1 nM): 26%
Treg cell Percent Differentiation (%) ([5]; 1 nM): 55%
Treg cell Percent Differentiation (%) ([5]; 10 nM): 90%
Th17 cell Percent Differentiation (%) ([6]; 0.1 nM): 32%
Th17 cell Percent Differentiation (%) ([6]; 1 nM): 21%
Th17 cell Percent Differentiation (%) ([6]; 10 nM): 11%
Th17 cell Percent Differentiation (%) ([6]; 100 nM): 5%
Foxp3+ Expression (%) ([7]; Blood): 4.3%
Foxp3+ Expression (%) ([7]; Spleen): 25%
symptoms associated with EAE (loss of bodyweight and paralysis/paresis) ([8]; prophylactic dosing: 1 mg/kg intraperitoneally every other day starting day 1 after EAE induction): reduced symptoms associated with EAE
symptoms associated with EAE (loss of bodyweight and paralysis/paresis) ([8]; therapeutic dosing: 2 mg/kg intraperitoneally every other day starting day 7 after EAE induction): reduced symptoms associated with EAE
